Results on 24 molecules are retold here after patent publication US9029370B2, “Substituted benzamide derivatives” (Hoffmann-La Roche Inc., priority 2011, dated 2015).

One experiment deals with rat TAAR1 (Rattus norvegicus (Rat), UniProt Q923Y9). The experiment is described as follows: Radioligand binding assay on rat TAAR1. The conditions noted are these: rat TAAR1, HEK-293 membranes; second value of the pair (line below); read-out: Ki (μM) mouse/rat. How it is done:
(§1) For the construction of expression plasmids the coding sequences of human, rat and mouse TAAR 1 were amplified from genomic DNA essentially as described by Lindemann et al.. The Expand High Fidelity PCR System (Roche Diagnostics) was used with 1.5 mM Mg^2+ and purified PCR products were cloned into pCR2.1-TOPO cloning vector (Invitrogen) following the instructions of the manufacturer. PCR products were subcloned into the pIRESneo2 vector (BD Clontech, Palo Alto, Calif.), and expression vectors were sequence verified before introduction in cell lines.
(§2) HEK293 cells (ATCC # CRL-1573) were cultured essentially as described by Lindemann et al. (2005). For the generation of stably transfected cell lines HEK293 cells were transfected with the pIRESneo2 expression plasmids containing the TAAR coding sequences (described above) with Lipofectamine 2000 (Invitrogen) according to the instructions of the manufacturer, and 24 hrs post transfection the culture medium was supplemented with 1 mg/ml G418 (Sigma, Buchs, Switzerland). After a culture period of about 10 d clones were isolated, expanded and tested for responsiveness to trace amines (all compounds purchased from Sigma) with the cAMP Biotrak Enzyme immunoassay (EIA) System (Amersham) following the non-acetylation EIA procedure provided by the manufacturer.
Radioligand Binding Assay on Rat TAAR1
(§3) Membrane Preparation and Radioligand Binding.
(§4) HEK-293 cells stably expressing rat TAAR1 were maintained at 37° C. and 5% CO2 in DMEM high glucose medium, containing fetal calf serum (10%, heat inactivated for 30 min at 56° C.), penicillin/streptomycin (1%), and 375 μg/ml geneticin (Gibco). Cells were released from culture flasks using trypsin/EDTA, harvested, washed twice with ice-cold PBS (without Ca^2+ and Mg^2+), pelleted at 1′000 rpm for 5 min at 4° C., frozen and stored at −80° C. […] The homogenate was centrifuged at 48′000×g for 30 min at 4° C. Subsequently, the supernatant was removed and discarded, and the pellet resuspended in 20 ml HEPES-NaOH (20 mM, pH 7.4) containing 0.1 mM EDTA using the Polytron (20 s at 14′000 rpm). This procedure was repeated and the final pellet resuspended in HEPES-NaOH containing 0.1 mM EDTA and homogenized using the Polytron. Typically, aliquots of 2 ml membrane portions were stored at −80° C. With each new membrane batch the dissociation constant (Kd) was determined via a saturation curve. […] Nonspecific binding was defined as the amount of ^3[H]-(S)-4-[(ethyl-phenyl-amino)-methyl]-4,5-dihydro-oxazol-2-ylamine bound in the presence of 10 μM unlabeled ligand. All compounds were tested at a broad range of concentrations (10 pM to 10 μM) in duplicates. […] The 96 deep well plates were incubated for 1 hr at 4° C. Incubations were terminated by rapid filtration through Unifilter-96 plates (Packard Instrument Company) and glass filters GF/C (Perkin Elmer) presoaked for 1 hr in polyethylenimine (0.3%) and washed 3 times with 1 ml of cold binding buffer. After addition of 45 μl of Microscint 40 (PerkinElmer) the Unifilter-96 plate was sealed and after 1 hr the ratioactivity counted using a TopCount Microplate Scintillation Counter (Packard Instrument Company).

The target of a further experiment is mouse TAAR1 (Mus musculus (Mouse), UniProt Q923Y8). The experiment is described as follows: Radioligand binding assay on mouse TAAR1. The conditions noted are these: mouse TAAR1, HEK-293 membranes; first value of the pair (before the slash); read-out: Ki (μM) mouse/rat. How it is done:
as §1, §2
Radioligand Binding Assay on Mouse TAAR1
as §3
as §4, with “expressing mouse” for “expressing rat”

Counter-ions that a name gives are not always drawn.

rat TAAR1, sequence (Q923Y9 whole entry): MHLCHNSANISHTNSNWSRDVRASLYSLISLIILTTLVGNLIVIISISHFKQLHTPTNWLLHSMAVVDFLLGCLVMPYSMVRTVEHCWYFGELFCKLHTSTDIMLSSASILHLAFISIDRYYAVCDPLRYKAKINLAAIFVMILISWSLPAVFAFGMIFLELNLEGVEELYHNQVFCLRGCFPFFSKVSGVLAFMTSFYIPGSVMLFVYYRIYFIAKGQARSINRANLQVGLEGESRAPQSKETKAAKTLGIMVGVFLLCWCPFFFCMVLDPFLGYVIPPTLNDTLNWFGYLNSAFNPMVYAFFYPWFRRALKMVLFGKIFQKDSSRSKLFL
mouse TAAR1, sequence (Q923Y8 whole entry): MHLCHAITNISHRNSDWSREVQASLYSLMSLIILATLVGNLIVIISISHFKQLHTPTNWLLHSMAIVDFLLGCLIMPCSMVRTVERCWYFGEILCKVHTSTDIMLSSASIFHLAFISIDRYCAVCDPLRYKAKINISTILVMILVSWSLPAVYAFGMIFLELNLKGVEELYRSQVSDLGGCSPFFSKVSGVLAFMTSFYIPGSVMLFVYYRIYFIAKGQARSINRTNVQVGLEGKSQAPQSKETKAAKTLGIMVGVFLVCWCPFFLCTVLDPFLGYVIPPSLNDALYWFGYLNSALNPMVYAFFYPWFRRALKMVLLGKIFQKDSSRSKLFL

`COc1cc(C(=O)Nc2ccc([C@H]3CNCCO3)cc2F)cc(Cl)n1` [Example 25, 2-Chloro-N—((S)-2-fluoro-4-morpholin-2-yl-phenyl)-6-methoxy-isonicotinamide]: the Ki at rat TAAR1 was 0.0127 µM; at mouse TAAR1, 0.0034 µM.
Turning to `N#Cc1cc(F)cc(NC(=O)Nc2ccc([C@H]3CNCCO3)cc2F)c1` [Example 26, 1-(3-Cyano-5-fluoro-phenyl)-3-((S)-2-fluoro-4-morpholin-2-yl-phenyl)-urea], the Ki turned out to be 0.002 µM at rat TAAR1 and 0.0012 µM on mouse TAAR1.
As for `N#Cc1cc(NC(=O)Nc2ccc([C@H]3CNCCO3)cc2F)ccc1F` [Example 27, 1-(3-Cyano-4-fluoro-phenyl)-3-((S)-2-fluoro-4-morpholin-2-yl-phenyl)-urea], the results for the Ki at rat TAAR1 and on mouse TAAR1 were 0.0038 µM and 0.0028 µM, respectively.
For `O=C(Nc1ccc([C@H]2CNCCO2)cc1Cl)c1ccn(-c2ccc(F)cc2)n1` [Example 29, (S)—N-(2-Chloro-4-(morpholin-2-yl)phenyl)-1-(4-fluorophenyl)-1H-pyrazole-3-carboxamide], in that order: 0.0036 µM and 0.0017 µM.
As to `O=C(Nc1ccc([C@@H]2CNCCO2)cc1Cl)c1ccn(-c2ccc(F)cc2)n1` [Example 30, (R)—N-(2-Chloro-4-(morpholin-2-yl)phenyl)-1-(4-fluorophenyl)-1H-pyrazole-3-carboxamide], the results for the Ki on rat TAAR1 and on mouse TAAR1 were 0.0012 µM and 0.032 µM, respectively.
For `O=C(Nc1ccc([C@H]2CNCCO2)cc1Cl)c1ccc(Cl)cc1` [Example 34, (S)-4-Chloro-N-(2-chloro-4-(morpholin-2-yl)phenyl)benzamide], in that order: 0.0229 µM and 0.0024 µM.
For `O=C(Nc1ccc([C@@H]2CNCCO2)cc1Cl)c1ccc(Cl)nc1` [Example 35, (R)-6-Chloro-N-(2-chloro-4-(morpholin-2-yl)phenyl)nicotinamide], in that order: 0.111 µM and 0.0082 µM.
On to `O=C(Nc1ccc([C@H]2CNCCO2)cc1Cl)c1ccc(Cl)nc1` [Example 36, (S)-6-Chloro-N-(2-chloro-4-(morpholin-2-yl)phenyl)nicotinamide], for which the Ki came to 0.488 µM on rat TAAR1 and 0.0139 µM at mouse TAAR1.
Regarding `COc1ccc(C#N)cc1NC(=O)Nc1ccc([C@H]2CNCCO2)cc1F` [Example 39, (S)-1-(5-Cyano-2-methoxyphenyl)-3-(2-fluoro-4-(morpholin-2-yl)phenyl)urea hydrochloride], the Ki was 0.0085 µM on rat TAAR1 and 0.003 µM at mouse TAAR1.
As to `Cc1cc([C@@H]2CNCCO2)ccc1NC(=O)Nc1ccc(Cl)nc1` [Example 40, (R)-1-(6-Chloropyridin-3-yl)-3-(2-methyl-4-(morpholin-2-yl)phenyl)urea], the Ki at rat TAAR1 was 0.12 µM; on mouse TAAR1 it was 0.0043 µM.
In the same order, the values of `Cc1cc([C@@H]2CNCCO2)ccc1NC(=O)c1ccc(Cl)nc1` [Example 42, 6-Chloro-N—((R)-2-methyl-4-morpholin-2-yl-phenyl)-nicotinamide] are 3.99 µM and 0.028 µM.
For `COc1ccc(C#N)cc1NC(=O)Nc1ccc([C@@H]2CNCCO2)cc1Cl` [Example 45, (R)-1-(2-Chloro-4-(morpholin-2-yl)phenyl)-3-(5-cyano-2-methoxyphenyl)urea], in that order: 0.0044 µM and 0.0023 µM.
As for `COc1ccc(C#N)cc1NC(=O)Nc1ccc([C@H]2CNCCO2)cc1Cl` [Example 46, (S)-1-(2-Chloro-4-(morpholin-2-yl)phenyl)-3-(5-cyano-2-methoxyphenyl)urea], the Ki on rat TAAR1 was 0.0064 µM; on mouse TAAR1, 0.0016 µM.
For `N#Cc1ccc(OC(F)F)c(NC(=O)Nc2ccc([C@@H]3CNCCO3)cc2Cl)c1` [Example 47, (R)-1-(2-Chloro-4-(morpholin-2-yl)phenyl)-3-(5-cyano-2-(difluoromethoxy)phenyl)urea], the Ki at rat TAAR1 worked out at 0.0012 µM; on mouse TAAR1 it was 0.002 µM.
For `N#Cc1ccc(OC(F)F)c(NC(=O)Nc2ccc([C@H]3CNCCO3)cc2Cl)c1` [Example 48, (S)-1-(2-Chloro-4-(morpholin-2-yl)phenyl)-3-(5-cyano-2-(difluoromethoxy)phenyl)urea], in that order: 0.0018 µM and 0.0022 µM.
In the case of `O=C(Nc1ccc(C(F)(F)F)nc1)Nc1ccc([C@@H]2CNCCO2)cc1Cl` [Example 49, (R)-1-(2-Chloro-4-(morpholin-2-yl)phenyl)-3-(6-(trifluoromethyl)pyridin-3-yl)urea], the Ki at rat TAAR1 is 0.0015 µM; at mouse TAAR1, 0.0021 µM.
As for `O=C(Nc1ccc(C(F)(F)F)nc1)Nc1ccc([C@H]2CNCCO2)cc1Cl` [Example 50, (S)-1-(2-Chloro-4-(morpholin-2-yl)phenyl)-3-(6-(trifluoromethyl)pyridin-3-yl)urea], the Ki at rat TAAR1 turned out to be 0.0014 µM; on mouse TAAR1, 0.0018 µM.
`O=C(Nc1cnc(C(F)(F)F)nc1)Nc1ccc([C@H]2CNCCO2)cc1Cl` [Example 51]: the Ki at rat TAAR1 was found to be 0.0126 µM; on mouse TAAR1, 0.0067 µM.
As to `O=C(Nc1cnc(C(F)(F)F)nc1)Nc1ccc([C@@H]2CNCCO2)cc1Cl` [Example 52, 1-((R)-2-Chloro-4-morpholin-2-yl-phenyl)-3-(2-trifluoromethyl-pyrimidin-5-yl)-urea], the Ki at rat TAAR1 was found to be 0.0058 µM; on mouse TAAR1, 0.0049 µM.
With `O=C(Nc1ccc(C(F)(F)F)cn1)Nc1ccc([C@H]2CNCCO2)cc1Cl` [Example 53, (S)-1-(2-Chloro-4-(morpholin-2-yl)phenyl)-3-(5-(trifluoromethyl)pyridin-2-yl)urea], the Ki is 0.0017 µM at rat TAAR1 and 0.0015 µM at mouse TAAR1.
As for `O=C(Nc1ccc(C(F)(F)F)cn1)Nc1ccc([C@@H]2CNCCO2)cc1Cl` [Example 54, (R)-1-(2-Chloro-4-(morpholin-2-yl)phenyl)-3-(5-(trifluoromethyl)pyridin-2-yl)urea], the Ki at rat TAAR1 was determined as 0.0018 µM; on mouse TAAR1 it was 0.003 µM.
Consider `O=C(Nc1ccc(Cl)cn1)Nc1ccc([C@@H]2CNCCO2)cc1Cl` [Example 55, (R)-1-(2-Chloro-4-(morpholin-2-yl)phenyl)-3-(5-chloropyridin-2-yl)urea], for which the results for the Ki on rat TAAR1 and on mouse TAAR1 were 0.0014 µM and 0.0012 µM, respectively.
As for `N#Cc1ccc(F)c(NC(=O)Nc2ccc([C@@H]3CNCCO3)cc2F)c1` [Example 56, 1-(5-Cyano-2-fluoro-phenyl)-3-((R)-2-fluoro-4-morpholin-2-yl-phenyl)-urea], the Ki came to 0.0035 µM at rat TAAR1 and 0.002 µM on mouse TAAR1.
On to `COc1ccc(C#N)cc1NC(=O)Nc1ccc([C@@H]2CNCCO2)cc1Br` [Example 57, 1-((R)-2-Bromo-4-morpholin-2-yl-phenyl)-3-(5-cyano-2-methoxy-phenyl)-urea], for which the figures for the Ki at rat TAAR1 and on mouse TAAR1 were 0.0127 µM and 0.0039 µM, respectively.
